Measured values taken from patent US4128666A, “4 AND 5-Halo substituted 2-indanamine compounds” (SmithKline Corporation, priority 1977, dated 1978).

How the values were obtained:
[1] = biological target: phenylethanolamine N-methyltransferase; assay: inhibition of phenylethanolamine N-methyltransferase in vitro; type: biochemical; conditions: for Ki: enzyme inhibition dissociation constant, calculated according to Chou
Procedure: Chem. Path. Pharm. 17:201-213, 1977, at various compound concentrations. From the data received, the enzyme inhibition dissociation constants (Ki values) were calculated according to mathematical procedures described by Chou, Mol. Pharm. 10:235-247, 1974.
The Ki value of a preferred compound of this invention, 4,5-dichloro-2-indanamine, was compared with other closely related compounds.

[2] = system: adrenal epinephrine/norepinephrine ratio; assay: in vivo adrenal epinephrine/norepinephrine ratio in mice (PNMT inhibition); conditions: for E/NE Ratio: male mice, 50 mg/kg p.o. daily dose, seven days, n = 5
Procedure: Male mice were dosed orally with either drug or vehicle control on a twice-a-day basis for seven consecutive days.
On the morning of the next day they were again dosed with two hours later sacrificed by decapitation. The adrenal glands were then removed and analyzed fluorometrically for both epinephrine and norepinephrine content.

[3] = Experiment 1, control 2.6 ± .1, ^b (SK & F 82566) significantly different from control, p <.001

| SMILES | Ki [1] [µM] | E/NE Ratio [2, 3] | potency of inhibition (in words) ([1]; compared with the other compounds of Table I) | lowering of adrenal epinephrine/norepinephrine ratio (in words) ([2]; only this compound, under the conditions of this study) | E/NE Ratio ([2]; Experiment 2, control 2.0 ± .05) |
| --- | --- | --- | --- | --- | --- |
| NC1Cc2ccccc2C1 [SK & F 8851] | 10 | 2.4 | – | – | – |
| NC1Cc2ccc(Cl)c(Cl)c2C1 (centres unmarked) [SK & F 82566, 4,5-dichloro-2-indanamine] | 0.02 | 1.1 | much more potent inhibitor than the other compounds | significantly lowered the adrenal epinephrine/norepinephrine ratio | – |
| NC1CCc2ccc(Cl)c(Cl)c21 (centres unmarked) [SK & F 82570] | > 1 | – | – | – | – |
| NC1Cc2cc(Cl)c(Cl)cc2C1 [SK & F 50070] | 1 | 2.2 | – | – | – |
| NC1CCc2c1ccc(Cl)c2Cl (centres unmarked) [SK & F 82520] | 0.4 | – | – | – | 1.8 |
